Laboratory results reported in patent US6770596B1, “Fused tricyclic compounds, process for their preparation, and herbicidal compositions containing them” (Ishihara Sangyo Kaisha Ltd., priority 2002, dated 2004).

Legend:
Format in all cases: in vivo
[1] = system: redroot pigweed (Amaranthus retroflexus, AMR); assay: Pre-emerge test, redroot pigweed; settings: 250 g ai/ha, 14 days after application, rating scale 0-100 (0 no damage, 100 complete death)
Source text: (§1) A standard greenhouse herbicide activity screening system was used to evaluate the herbicidal efficacy and crop safety of these test compounds. Seven broadleaf weed species including redroot pigweed (Amaranthus retroflexus, AMR), velvetleaf (Abutilon theophrasti, ABT), sicklepod (Cassia obtusifolia, CAO), ivyleaf morningglory (Ipomoea hederacea, IPH), lambsquarters (Chenopodium album, CHA), common ragweed (Ambrosia artemisiifolia L., AML), and cocklebur (Xanthium strumariunt, XAS) were used as test species. Four grass weed species including green foxtail (Setaria viridis, SEV), barnyardgrass (Echinachloa crus-galli, ECC), johnsongrass (Sorghum halepense, SOH), and large crabgrass (Digitaria sanguinalis, DIS) were also used. In addition, four crop species, field corn (Zea mays L., var. Dekalb 535, CORN), soybean (Glycine max L., var. Pella 86, SOY), upland rice (Oryza sp., var.Tebonnet, RICE), and wheat (Triticum aestivum) were included all plants were grown in 10 cm square plastic pots which were filled with a sandy loam soil mix.
(§2) For pre-emerge tests, seeds were planted one day prior to application of the test compounds. All test compounds were dissolved in acetone and applied to the test pots in a volume of 187 l/ha. Test materials were applied at rates ranging from 8 g ai/ha to 1000 g ai/ha using a track sprayer equipped with a TJ8001E even flow flat fan spray nozzle. This application simulates a typical commercial field herbicide application.
(§3) At 14 days after application of the test materials, phytotoxicity ratings were recorded. A rating scale of 0-100 was used for both pre and post emerge tests as previously described in Research Methods in Weed Science, 2nd edition, B, Truelove, Ed., Southern Weed Science Society, Auburn University, Auburn, Ala., 1977. Briefly, “0” corresponds to no damage and “100” corresponds to complete death of all plants in the test unit. This scale was used both to determine efficacy against weed species and damage to crop species. Herbicide activity data for various compounds of this invention, which are shown by compound No. in Tables 1-3, are shown in Tables 5 and 6.

[2] = system: velvetleaf (Abutilon theophrasti, ABT); assay: Pre-emerge test, velvetleaf; settings: 250 g ai/ha, 14 days after application, rating scale 0-100 (0 no damage, 100 complete death)
Source text: as §1, §2, §3

[3] = system: sicklepod (Cassia obtusifolia, CAO); assay: Pre-emerge test, sicklepod; settings: 250 g ai/ha, 14 days after application, rating scale 0-100 (0 no damage, 100 complete death)
Source text: as §1, §2, §3

[4] = system: ivyleaf morningglory (Ipomoea hederacea, IPH); assay: Pre-emerge test, ivyleaf morningglory; settings: 250 g ai/ha, 14 days after application, rating scale 0-100 (0 no damage, 100 complete death)
Source text: as §1, §2, §3

[5] = system: lambsquarters (Chenopodium album, CHA); assay: Pre-emerge test, lambsquarters; settings: 250 g ai/ha, 14 days after application, rating scale 0-100 (0 no damage, 100 complete death)
Source text: as §1, §2, §3

[6] = system: common ragweed (Ambrosia artemisiifolia L., AML); assay: Pre-emerge test, common ragweed; settings: 250 g ai/ha, 14 days after application, rating scale 0-100 (0 no damage, 100 complete death)
Source text: as §1, §2, §3

[7] = system: cocklebur (Xanthium strumariunt, XAS); assay: Pre-emerge test, cocklebur; settings: 250 g ai/ha, 14 days after application, rating scale 0-100 (0 no damage, 100 complete death)
Source text: as §1, §2, §3

[8] = system: green foxtail (Setaria viridis, SEV); assay: Pre-emerge test, green foxtail; settings: 250 g ai/ha, 14 days after application, rating scale 0-100 (0 no damage, 100 complete death)
Source text: as §1, §2, §3

[9] = system: barnyardgrass (Echinachloa crus-galli, ECC); assay: Pre-emerge test, barnyardgrass; settings: 250 g ai/ha, 14 days after application, rating scale 0-100 (0 no damage, 100 complete death)
Source text: as §1, §2, §3

[10] = system: johnsongrass (Sorghum halepense, SOH); assay: Pre-emerge test, johnsongrass; settings: 250 g ai/ha, 14 days after application, rating scale 0-100 (0 no damage, 100 complete death)
Source text: as §1, §2, §3

[11] = system: large crabgrass (Digitaria sanguinalis, DIS); assay: Pre-emerge test, large crabgrass; settings: 250 g ai/ha, 14 days after application, rating scale 0-100 (0 no damage, 100 complete death)
Source text: as §1, §2, §3

[12] = system: field corn (Zea mays L., var. Dekalb 535, CORN); assay: Pre-emerge test, crop damage field corn; settings: pre-emerge, 250 g ai/ha, 14 days after application, rating scale 0-100 (0 no damage, 100 complete death)
Source text: as §1, §2, §3

[13] = system: soybean (Glycine max L., var. Pella 86, SOY); assay: Pre-emerge test, crop damage soybean; settings: pre-emerge, 250 g ai/ha, 14 days after application, rating scale 0-100 (0 no damage, 100 complete death)
Source text: as §1, §2, §3

[14] = system: upland rice (Oryza sp., var.Tebonnet, RICE); assay: Pre-emerge test, crop damage upland rice; settings: pre-emerge, 250 g ai/ha, 14 days after application, rating scale 0-100 (0 no damage, 100 complete death)
Source text: as §1, §2, §3

[15] = system: wheat (Triticum aestivum); assay: Pre-emerge test, crop damage wheat; settings: pre-emerge, 250 g ai/ha, 14 days after application, rating scale 0-100 (0 no damage, 100 complete death)
Source text: as §1, §2, §3

[16] = system: redroot pigweed (Amaranthus retroflexus, AMR); assay: Post-emerge test, redroot pigweed; settings: 250 g ai/ha, 14 days after application, rating scale 0-100 (0 no damage, 100 complete death)
Source text: as §1, §2
(§4) For post-emerge tests, seeds were planted 8-21 days prior to the test to allow emergence and good foliage development prior to application of the test substances. At the time of the post-emerge application, plants of all species were usually at the 2-3 leaf stage of development. In the postemerge test, a commercial non-ionic surfactant was also included (0.25% v/v) to enhance wetting of the leaf surfaces of target plants.
as §3

[17] = system: velvetleaf (Abutilon theophrasti, ABT); assay: Post-emerge test, velvetleaf; settings: 250 g ai/ha, 14 days after application, rating scale 0-100 (0 no damage, 100 complete death)
Source text: as §1, §2, §4, §3

[18] = system: sicklepod (Cassia obtusifolia, CAO); assay: Post-emerge test, sicklepod; settings: 250 g ai/ha, 14 days after application, rating scale 0-100 (0 no damage, 100 complete death)
Source text: as §1, §2, §4, §3

[19] = system: ivyleaf morningglory (Ipomoea hederacea, IPH); assay: Post-emerge test, ivyleaf morningglory; settings: 250 g ai/ha, 14 days after application, rating scale 0-100 (0 no damage, 100 complete death)
Source text: as §1, §2, §4, §3

[20] = system: lambsquarters (Chenopodium album, CHA); assay: Post-emerge test, lambsquarters; settings: 250 g ai/ha, 14 days after application, rating scale 0-100 (0 no damage, 100 complete death)
Source text: as §1, §2, §4, §3

[21] = system: common ragweed (Ambrosia artemisiifolia L., AML); assay: Post-emerge test, common ragweed; settings: 250 g ai/ha, 14 days after application, rating scale 0-100 (0 no damage, 100 complete death)
Source text: as §1, §2, §4, §3

[22] = system: cocklebur (Xanthium strumariunt, XAS); assay: Post-emerge test, cocklebur; settings: 250 g ai/ha, 14 days after application, rating scale 0-100 (0 no damage, 100 complete death)
Source text: as §1, §2, §4, §3

[23] = system: green foxtail (Setaria viridis, SEV); assay: Post-emerge test, green foxtail; settings: 250 g ai/ha, 14 days after application, rating scale 0-100 (0 no damage, 100 complete death)
Source text: as §1, §2, §4, §3

[24] = system: barnyardgrass (Echinachloa crus-galli, ECC); assay: Post-emerge test, barnyardgrass; settings: 250 g ai/ha, 14 days after application, rating scale 0-100 (0 no damage, 100 complete death)
Source text: as §1, §2, §4, §3

[25] = system: johnsongrass (Sorghum halepense, SOH); assay: Post-emerge test, johnsongrass; settings: 250 g ai/ha, 14 days after application, rating scale 0-100 (0 no damage, 100 complete death)
Source text: as §1, §2, §4, §3

[26] = system: large crabgrass (Digitaria sanguinalis, DIS); assay: Post-emerge test, large crabgrass; settings: 250 g ai/ha, 14 days after application, rating scale 0-100 (0 no damage, 100 complete death)
Source text: as §1, §2, §4, §3

[27] = system: field corn (Zea mays L., var. Dekalb 535, CORN); assay: Post-emerge test, crop damage field corn; settings: post-emerge, 250 g ai/ha, 14 days after application, rating scale 0-100 (0 no damage, 100 complete death)
Source text: as §1, §2, §4, §3

[28] = system: soybean (Glycine max L., var. Pella 86, SOY); assay: Post-emerge test, crop damage soybean; settings: post-emerge, 250 g ai/ha, 14 days after application, rating scale 0-100 (0 no damage, 100 complete death)
Source text: as §1, §2, §4, §3

[29] = system: upland rice (Oryza sp., var.Tebonnet, RICE); assay: Post-emerge test, crop damage upland rice; settings: post-emerge, 250 g ai/ha, 14 days after application, rating scale 0-100 (0 no damage, 100 complete death)
Source text: as §1, §2, §4, §3

[30] = system: wheat (Triticum aestivum); assay: Post-emerge test, crop damage wheat; settings: post-emerge, 250 g ai/ha, 14 days after application, rating scale 0-100 (0 no damage, 100 complete death)
Source text: as §1, §2, §4, §3

SMILES	Pre-emerge Herbicidal Activity AMR (phytotoxicity rating) [1]	Pre-emerge Herbicidal Activity ABT (phytotoxicity rating) [2]	Pre-emerge Herbicidal Activity CAO (phytotoxicity rating) [3]	Pre-emerge Herbicidal Activity IPH (phytotoxicity rating) [4]	Pre-emerge Herbicidal Activity CHA (phytotoxicity rating) [5]	Pre-emerge Herbicidal Activity AML (phytotoxicity rating) [6]	Pre-emerge Herbicidal Activity XAS (phytotoxicity rating) [7]	Pre-emerge Herbicidal Activity SEV (phytotoxicity rating) [8]	Pre-emerge Herbicidal Activity ECC (phytotoxicity rating) [9]	Pre-emerge Herbicidal Activity SOH (phytotoxicity rating) [10]	Pre-emerge Herbicidal Activity DIS (phytotoxicity rating) [11]	Pre-emerge crop damage CORN (phytotoxicity rating) [12]	Pre-emerge crop damage SOY (phytotoxicity rating) [13]	Pre-emerge crop damage RICE (phytotoxicity rating) [14]	Pre-emerge crop damage WHEAT (phytotoxicity rating) [15]	Post-emerge Herbicidal Activity AMR (phytotoxicity rating) [16]	Post-emerge Herbicidal Activity ABT (phytotoxicity rating) [17]	Post-emerge Herbicidal Activity CAO (phytotoxicity rating) [18]	Post-emerge Herbicidal Activity IPH (phytotoxicity rating) [19]	Post-emerge Herbicidal Activity CHA (phytotoxicity rating) [20]	other results
CC1C(=O)Nc2c(-c3nn(C)c(C(F)(F)F)c3Cl)c(F)cc3c2N1C(=O)C(C)(C)O3 (stereo not drawn) [1-54]	100	100	99	75	100	95	90	98	85	99	95	55	55	0	0	80	100	40	60	99	Post-emerge Herbicidal Activity AML (phytotoxicity rating) [21]: 80; Post-emerge Herbicidal Activity XAS (phytotoxicity rating) [22]: 65; Post-emerge Herbicidal Activity SEV (phytotoxicity rating) [23]: 65; Post-emerge Herbicidal Activity ECC (phytotoxicity rating) [24]: 0; Post-emerge Herbicidal Activity SOH (phytotoxicity rating) [25]: 0; Post-emerge Herbicidal Activity DIS (phytotoxicity rating) [26]: 0; Post-emerge crop damage CORN (phytotoxicity rating) [27]: 0; Post-emerge crop damage SOY (phytotoxicity rating) [28]: 45; Post-emerge crop damage RICE (phytotoxicity rating) [29]: 0; Post-emerge crop damage WHEAT (phytotoxicity rating) [30]: 0
CCC1C(=O)Nc2c(-c3nn(C)c(OC(F)F)c3Cl)c(F)cc3c2N1C(=O)CO3 (stereo not drawn) [1-28]	100	100	100	100	100	98	100	100	100	100	100	85	40	75	65	100	100	100	100	100	Post-emerge Herbicidal Activity AML (phytotoxicity rating) [21]: 100; Post-emerge Herbicidal Activity XAS (phytotoxicity rating) [22]: 100; Post-emerge Herbicidal Activity SEV (phytotoxicity rating) [23]: 100; Post-emerge Herbicidal Activity ECC (phytotoxicity rating) [24]: 99; Post-emerge Herbicidal Activity SOH (phytotoxicity rating) [25]: 80; Post-emerge Herbicidal Activity DIS (phytotoxicity rating) [26]: 15; Post-emerge crop damage CORN (phytotoxicity rating) [27]: 25; Post-emerge crop damage SOY (phytotoxicity rating) [28]: 100; Post-emerge crop damage RICE (phytotoxicity rating) [29]: 100; Post-emerge crop damage WHEAT (phytotoxicity rating) [30]: 50
